Substitutions are numbered along the chain they refer to.
How the values were obtained:
IFN-γR2 [1] = target: T1, IFN-γR2 (Homo sapiens, UniProt P38484); assay: competition of photoaffinity labelling in living cells, anti-GFP IP, autoradiography; type: cell-based; conditions: competes with [3H]-photo-chol, dose-dependent; curve only in supplement
T1 construct: gene IFNGR2; full-length, C-terminal GFP fusion (peGFP-N1); transiently expressed in CHO (with IFN-γR1-RLuc) or HAP1 IFN-γR2 KO cells; in the functional receptor two R1 and two R2 chains
T1 sequence (P38484 22-337): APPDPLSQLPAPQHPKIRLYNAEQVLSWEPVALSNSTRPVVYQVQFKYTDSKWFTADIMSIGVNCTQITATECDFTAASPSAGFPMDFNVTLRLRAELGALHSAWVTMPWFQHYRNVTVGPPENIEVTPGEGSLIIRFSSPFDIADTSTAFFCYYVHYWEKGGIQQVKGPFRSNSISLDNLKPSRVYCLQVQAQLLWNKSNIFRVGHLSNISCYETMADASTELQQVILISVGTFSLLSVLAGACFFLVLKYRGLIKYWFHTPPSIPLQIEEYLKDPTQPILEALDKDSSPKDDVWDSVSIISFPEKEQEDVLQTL

IFN-γR2 [2] = target: T2, IFN-γR2 (Homo sapiens, UniProt P38484, L250T/I251T/G254F); assay: in vivo photoaffinity labelling, UV cross-link, anti-GFP IP, autoradiography; type: cell-based; conditions: 3 µM probe, 6 h; full-length GFP fusion, CHO and HAP1 IFN-γR2 KO cells; covalent; labelled compound; with or without IFN-γ
T2 construct: gene IFNGR2; full-length, C-terminal GFP fusion (peGFP-N1); transiently expressed in CHO (with IFN-γR1-RLuc) or HAP1 IFN-γR2 KO cells
T2 sequence (P38484 22-337 L250T/I251T/G254F): T1 sequence (P38484 22-337) with L229T, I230T, G233F

| % reduction of chol binding vs wild type (IFN-γR2 [2]) [%] | Compound | competition of photoaffinity labelling in living cells, anti-GFP IP, autoradiogr (IFN-γR2 [1]) |
| --- | --- | --- |
|  | CC(C)CCC[C@@H](C)[C@H]1CC[C@H]2[C@@H]3CC=C4C[C@@H](O)CC[C@]4(C)[C@H]3CC[C@]12C [chol] | cross‐linking between [^3H]‐photo‐chol and IFN‐γR2 was competed in a dose‐dependent manner |
| > 50 | [3H]-photo-chol |  |
